In PubChem BioAssay (NCI):
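Protocol summary: plate cells (96-well), add compound at 5 concentrations, incubate 48 h, interpolate endpoints linearly. GI50 marks 50% less growth. TGI denotes the concentration required for complete inhibition of growth.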

Columns and labels:
Assay in all cases: NCI-60 cell line screen, 48 h
[1] = system: NCI-H23 lung
[2] = system: NCI-H460 lung
[3] = system: NCI-H522 lung
[4] = system: NCI/ADR-RES ovarian
[5] = system: OVCAR-3 ovarian
[6] = system: OVCAR-4 ovarian
[7] = system: OVCAR-5 ovarian
[8] = system: OVCAR-8 ovarian
[9] = system: PC-3 prostate
[10] = system: RPMI-8226 leukemia
[11] = system: RXF 393 renal
[12] = system: SF-268 CNS
[13] = system: SF-295 CNS
[14] = system: SF-539 CNS
[15] = system: SK-MEL-2 melanoma
[16] = system: SK-MEL-28 melanoma
[17] = system: SK-MEL-5 melanoma
[18] = system: SK-OV-3 ovarian
[19] = system: SN12C renal
[20] = system: SNB-19 CNS
[21] = system: SNB-75 CNS
[22] = system: SR leukemia
[23] = system: SW-620 colon
[24] = system: T-47D breast
[25] = system: TK-10 renal
[26] = system: U251 CNS
[27] = system: UACC-257 melanoma
[28] = system: UACC-62 melanoma
[29] = system: UO-31 renal

Question: How did the TGI [1] turn out when `O=C1NC(=NCCc2cccc(F)c2)S/C1=C\c1ccc2ncccc2c1` was run?
Answer: > 25 µM

Question: And the GI50 [2]?
Answer: 1.39 µM

Question: And the TGI [2]?
Answer: > 25 µM

Question: And the GI50 [3]?
Answer: 3.59 µM

Question: What about the TGI [3] of the same molecule?
Answer: 24.9 µM

Question: And the GI50 [4]?
Answer: 10.8 µM

Question: What about the TGI [4] of the same molecule?
Answer: > 25 µM

Question: What about the GI50 [5] of the same molecule?
Answer: 1.76 µM

Question: And the TGI [5]?
Answer: > 25 µM

Question: And the GI50 [6]?
Answer: > 25 µM

Question: What about the TGI [6] of the same molecule?
Answer: > 25 µM

Question: What about the GI50 [7] of the same molecule?
Answer: > 25 µM

Question: What about the TGI [7] of the same molecule?
Answer: > 25 µM

Question: What about the GI50 [8] of the same molecule?
Answer: 12.8 µM

Question: What about the TGI [8] of the same molecule?
Answer: > 25 µM

Question: And the GI50 [9]?
Answer: > 25 µM

Question: What about the TGI [9] of the same molecule?
Answer: > 25 µM

Question: What about the GI50 [10] of the same molecule?
Answer: 1.73 µM

Question: And the TGI [10]?
Answer: > 25 µM

Question: And the GI50 [11]?
Answer: 4.4 µM

Question: What about the TGI [11] of the same molecule?
Answer: > 25 µM

Question: What about the GI50 [12] of the same molecule?
Answer: 10.7 µM

Question: What about the TGI [12] of the same molecule?
Answer: > 25 µM

Question: What about the GI50 [13] of the same molecule?
Answer: 2.56 µM

Question: What about the TGI [13] of the same molecule?
Answer: > 25 µM

Question: And the GI50 [14]?
Answer: 1.59 µM

Question: What about the TGI [14] of the same molecule?
Answer: > 25 µM

Question: What about the GI50 [15] of the same molecule?
Answer: 15.8 µM

Question: What about the TGI [15] of the same molecule?
Answer: > 25 µM

Question: And the GI50 [16]?
Answer: > 21.4 µM

Question: What about the TGI [16] of the same molecule?
Answer: > 25 µM

Question: And the GI50 [17]?
Answer: 3.41 µM

Question: What about the TGI [17] of the same molecule?
Answer: > 25 µM

Question: And the GI50 [18]?
Answer: 4.38 µM

Question: And the TGI [18]?
Answer: > 25 µM

Question: And the GI50 [19]?
Answer: > 16 µM

Question: What about the TGI [19] of the same molecule?
Answer: > 25 µM

Question: And the GI50 [20]?
Answer: 14.1 µM

Question: And the TGI [20]?
Answer: > 25 µM

Question: What about the GI50 [21] of the same molecule?
Answer: 3.79 µM

Question: And the TGI [21]?
Answer: > 21.9 µM

Question: What about the GI50 [22] of the same molecule?
Answer: 0.121 µM

Question: What about the TGI [22] of the same molecule?
Answer: > 25 µM

Question: And the GI50 [23]?
Answer: 0.819 µM

Question: What about the TGI [23] of the same molecule?
Answer: > 25 µM

Question: And the GI50 [24]?
Answer: 6.89 µM

Question: And the TGI [24]?
Answer: > 25 µM

Question: What about the GI50 [25] of the same molecule?
Answer: > 12.4 µM

Question: What about the TGI [25] of the same molecule?
Answer: > 25 µM

Question: And the GI50 [26]?
Answer: 1.46 µM

Question: And the TGI [26]?
Answer: > 25 µM

Question: What about the GI50 [27] of the same molecule?
Answer: 9.61 µM

Question: What about the TGI [27] of the same molecule?
Answer: > 25 µM

Question: What about the GI50 [28] of the same molecule?
Answer: 5.41 µM

Question: What about the TGI [28] of the same molecule?
Answer: > 25 µM

Question: What about the GI50 [29] of the same molecule?
Answer: 16.7 µM

Question: And the TGI [29]?
Answer: > 25 µM
